From patent US20220175776A1, “COMBINATION OF CHIR99021 AND VALPROIC ACID FOR TREATING HEARING LOSS” (Frequency Therapeutics, Inc., priority 2019, published 2022)
Where two headings read alike, the source gives them in different places.

Assays:
[1] = test system: MAOs A and B; details: Table 6, single value, isoform not stated; read-out: Select MAOs A and B; cited from earlier work
[2] = target: EZH2 (Homo sapiens, UniProt O75530+Q15910); details: Table 7; includes EED, SAM-competitive and SAH-hydrolase inhibitors; read-out: pKi or IC50 (converted); cited from earlier work
EZH2 (Homo sapiens, UniProt O75530+Q15910), sequence (Q15910 whole entry): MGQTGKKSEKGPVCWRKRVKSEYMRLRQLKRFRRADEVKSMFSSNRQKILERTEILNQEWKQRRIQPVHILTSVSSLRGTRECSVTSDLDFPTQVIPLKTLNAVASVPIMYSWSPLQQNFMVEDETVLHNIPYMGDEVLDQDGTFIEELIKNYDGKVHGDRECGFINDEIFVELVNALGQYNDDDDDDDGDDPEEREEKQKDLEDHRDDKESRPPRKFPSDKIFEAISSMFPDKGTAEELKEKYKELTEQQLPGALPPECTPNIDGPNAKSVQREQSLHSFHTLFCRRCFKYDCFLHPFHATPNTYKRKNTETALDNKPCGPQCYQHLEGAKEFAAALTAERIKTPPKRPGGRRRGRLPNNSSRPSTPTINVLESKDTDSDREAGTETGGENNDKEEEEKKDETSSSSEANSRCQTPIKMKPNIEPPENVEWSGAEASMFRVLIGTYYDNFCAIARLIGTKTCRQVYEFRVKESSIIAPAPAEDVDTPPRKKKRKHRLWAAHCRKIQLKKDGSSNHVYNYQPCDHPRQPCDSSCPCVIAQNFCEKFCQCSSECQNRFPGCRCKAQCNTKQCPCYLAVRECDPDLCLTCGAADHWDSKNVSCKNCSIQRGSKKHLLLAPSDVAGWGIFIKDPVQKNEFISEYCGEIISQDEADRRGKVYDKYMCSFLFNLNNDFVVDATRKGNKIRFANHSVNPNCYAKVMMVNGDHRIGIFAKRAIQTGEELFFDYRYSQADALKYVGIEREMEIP
EZH2 (Homo sapiens, UniProt O75530+Q15910), sequence (O75530 whole entry): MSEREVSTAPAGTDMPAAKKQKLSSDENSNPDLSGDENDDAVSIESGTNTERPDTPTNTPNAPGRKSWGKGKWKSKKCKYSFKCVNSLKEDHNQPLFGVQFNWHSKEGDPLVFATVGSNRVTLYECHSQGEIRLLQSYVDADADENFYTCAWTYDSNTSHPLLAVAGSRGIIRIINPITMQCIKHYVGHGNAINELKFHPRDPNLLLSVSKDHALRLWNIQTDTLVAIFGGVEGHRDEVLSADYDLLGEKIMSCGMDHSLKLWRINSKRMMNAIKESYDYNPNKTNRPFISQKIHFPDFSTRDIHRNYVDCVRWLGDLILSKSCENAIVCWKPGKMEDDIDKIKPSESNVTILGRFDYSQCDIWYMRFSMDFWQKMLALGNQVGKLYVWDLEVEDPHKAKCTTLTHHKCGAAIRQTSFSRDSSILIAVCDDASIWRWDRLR
EZH2 (Homo sapiens, UniProt O75530+Q15910), sequence (Q15022 whole entry partner): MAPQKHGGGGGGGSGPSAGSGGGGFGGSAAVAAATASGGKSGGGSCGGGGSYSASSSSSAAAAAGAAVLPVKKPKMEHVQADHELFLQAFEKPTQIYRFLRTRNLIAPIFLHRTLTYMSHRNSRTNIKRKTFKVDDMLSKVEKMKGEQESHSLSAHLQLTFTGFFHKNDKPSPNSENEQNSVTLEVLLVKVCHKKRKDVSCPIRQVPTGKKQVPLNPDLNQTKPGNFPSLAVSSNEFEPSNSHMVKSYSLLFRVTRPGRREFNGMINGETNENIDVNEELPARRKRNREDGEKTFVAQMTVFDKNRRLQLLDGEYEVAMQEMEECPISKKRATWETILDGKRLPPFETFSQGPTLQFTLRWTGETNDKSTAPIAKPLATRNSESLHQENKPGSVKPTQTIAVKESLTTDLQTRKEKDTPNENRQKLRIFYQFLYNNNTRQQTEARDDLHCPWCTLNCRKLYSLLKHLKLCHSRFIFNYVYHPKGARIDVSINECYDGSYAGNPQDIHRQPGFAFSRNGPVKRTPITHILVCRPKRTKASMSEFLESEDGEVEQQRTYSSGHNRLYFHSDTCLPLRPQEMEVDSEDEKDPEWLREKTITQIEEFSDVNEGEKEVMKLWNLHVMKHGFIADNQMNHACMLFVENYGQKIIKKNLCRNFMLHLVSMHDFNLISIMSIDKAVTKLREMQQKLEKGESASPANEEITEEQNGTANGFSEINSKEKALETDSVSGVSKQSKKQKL
EZH2 (Homo sapiens, UniProt O75530+Q15910), sequence (Q09028 whole entry partner): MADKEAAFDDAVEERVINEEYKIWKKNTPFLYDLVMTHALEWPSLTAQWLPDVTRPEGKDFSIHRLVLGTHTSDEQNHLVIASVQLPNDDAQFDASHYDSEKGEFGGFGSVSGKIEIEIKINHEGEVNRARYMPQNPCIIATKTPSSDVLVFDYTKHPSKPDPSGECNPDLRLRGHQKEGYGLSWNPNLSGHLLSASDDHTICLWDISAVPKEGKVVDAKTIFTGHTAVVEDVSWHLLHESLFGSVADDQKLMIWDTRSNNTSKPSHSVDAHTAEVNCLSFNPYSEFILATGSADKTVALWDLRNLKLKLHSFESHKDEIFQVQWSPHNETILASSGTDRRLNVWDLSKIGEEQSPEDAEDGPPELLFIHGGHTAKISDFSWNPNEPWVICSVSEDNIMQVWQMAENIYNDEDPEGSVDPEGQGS

[3] = test system: Lgr5+ cochlear cells; test: Lgr5+ Assay (in vitro Lgr5+ cell proliferation assay); assay type: cell-based
[4] = Table 6, human; cited from earlier work
[5] = target: EZH-1 (Homo sapiens, UniProt Q92800); details: Table 7, cited from earlier work
EZH-1, sequence (Q92800 whole entry): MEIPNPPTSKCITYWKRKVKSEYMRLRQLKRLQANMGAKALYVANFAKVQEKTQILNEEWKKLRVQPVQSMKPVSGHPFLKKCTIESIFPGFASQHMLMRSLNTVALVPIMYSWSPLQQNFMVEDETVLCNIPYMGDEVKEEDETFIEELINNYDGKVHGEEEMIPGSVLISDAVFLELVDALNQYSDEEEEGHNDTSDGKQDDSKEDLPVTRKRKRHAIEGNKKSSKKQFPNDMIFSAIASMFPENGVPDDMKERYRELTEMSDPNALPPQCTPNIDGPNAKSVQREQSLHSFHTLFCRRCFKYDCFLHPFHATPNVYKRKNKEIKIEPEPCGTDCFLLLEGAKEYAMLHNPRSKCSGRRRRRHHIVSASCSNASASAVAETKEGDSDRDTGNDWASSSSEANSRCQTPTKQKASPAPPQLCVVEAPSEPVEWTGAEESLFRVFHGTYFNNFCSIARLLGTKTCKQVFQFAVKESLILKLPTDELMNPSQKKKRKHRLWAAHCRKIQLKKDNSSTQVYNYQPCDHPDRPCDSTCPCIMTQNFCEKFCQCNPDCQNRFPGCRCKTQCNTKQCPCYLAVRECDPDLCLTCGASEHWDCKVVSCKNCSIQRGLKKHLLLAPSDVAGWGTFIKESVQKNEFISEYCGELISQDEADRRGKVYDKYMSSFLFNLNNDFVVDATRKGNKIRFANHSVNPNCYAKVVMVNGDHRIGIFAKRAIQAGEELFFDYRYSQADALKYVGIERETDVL
EZH-1, sequence (O75530 whole entry partner): as the sequence (O75530 whole entry) above
EZH-1, sequence (Q15022 whole entry partner): as the sequence (Q15022 whole entry partner) above
EZH-1, sequence (Q09028 whole entry partner): as the sequence (Q09028 whole entry partner) above

[6] = target: LSD1 (Homo sapiens, UniProt O60341); details: Table 6, LSD1; read-out: pKi or IC50 (converted); cited from earlier work
[7] = target: EZH2 (Homo sapiens, UniProt Q15910); details: Table 7; literature, cells not named; cited from earlier work
EZH2 (Homo sapiens, UniProt Q15910), sequence (Q15910 whole entry): as the sequence (Q15910 whole entry) above
EZH2 (Homo sapiens, UniProt Q15910), sequence (O75530 whole entry partner): as the sequence (O75530 whole entry) above
EZH2 (Homo sapiens, UniProt Q15910), sequence (Q15022 whole entry partner): as the sequence (Q15022 whole entry partner) above
EZH2 (Homo sapiens, UniProt Q15910), sequence (Q09028 whole entry partner): as the sequence (Q09028 whole entry partner) above

[8] = human, in vivo
Text: Patients underwent physical examination of weight and height, vital signs (body temperature, pulse rate, blood pressure), 12-lead electrocardiogram (ECG), drug screen, clinical laboratory testing (hematology, serum chemistry, urinalysis), urine pregnancy test, and hepatitis B and C antibody tests.

[9] = test system: HDAC; details: Table 4, HDAC class; cited from earlier work
[10] = Table 1, GSK3 inhibitors, concentration range
[11] = Table 7, EZH2 inhibitors, concentration range

C/C(=N\NC(=O)c1cccc(S(=O)(=O)N2CCOCC2)c1)c1cc(Cl)ccc1O [SP-2509]
IC50 [1]: > 300 µM

Cc1coc2c1C(=O)C(=O)c1c-2ccc2c1CC[C@H](O)[C@]2(C)O [Tanshindiol B]
IC50 [2]: 520 nM

N#Cc1c2c(c3nncn3c1NCc1ccco1)CN(Cc1ccccc1)CC2 [EED162]
IC50 [2]: 30 nM

N#Cc1ccc2[nH]c(O)c(-c3ccc(CN4CCOCC4)cn3)c2c1 [AZD 1080]
Lgr5+ Assay [3, 10]: 1 to 5 µM

CN1CCN(C(=O)[C@H](CCCN[C@@H]2C[C@H]2c2ccc(F)cc2)NC(=O)c2ccc(-n3ccnn3)cc2)CC1 [IMG-7289]
Human Plasma Conc, Cmax [4]: 63 ng/mL

CCCc1cc(C)[nH]c(=O)c1CNC(=O)c1cc(-c2ccnc(N3CCN(C)CC3)c2)cc2c1cnn2C(C)C [GSK343]
IC50 [2]: 1.2 nM
Select vs EZH-1 ([5]; given as fold): 60x

Nc1ncnc2c1ncn2[C@@H]1O[C@H](C[C@@H](N)CC[C@H](N)C(=O)O)[C@@H](O)[C@H]1O [Sinefungin]
IC50 [2]: 20 nM

CCCc1cc(C)[nH]c(=O)c1CNC(=O)c1cc(-c2ccc(N3CCN(C(=O)CCOCCOCCOCCOCCOCCOCCOCCOCCOCCOCCOCCOCCNC(=O)CCCC[C@@H]4SC[C@@H]5NC(=O)N[C@@H]54)CC3)nc2)cc2c1cnn2C(C)C [UNC 2399]
Lgr5+ Assay [3, 11]: 0.1 to 10 µM

Cc1cc(C)c(CNC(=O)c2cc(-c3ccc(N4CCN(C)CC4)nc3)cc3c2cnn3C(C)C)c(=O)[nH]1 [GSK926]
IC50 [2]: 7.9 nM

CCc1c(N(CC)C2CCOCC2)cc2oc(C3CCN(C(C)C)CC3)cc2c1C(=O)NCc1c(C)cc(C)[nH]c1=O [EBI-2511]
IC50 [2]: 4 nM

CC(C)=CCC/C(C)=C/CC/C(C)=C/CC/C(C)=C/CO [Geranylgeraniol]
IC50 [6]: 80 µM

CC(C)=CCC/C(C)=C/CC/C(C)=C/CC/C(C)=C/C(=O)O [geranylgeranoic acid]
IC50 [6]: 120 µM

COc1cc(C)[nH]c(=O)c1CNC(=O)c1c(C)n([C@H](C)C2CCOCC2)c2ccccc12 [CPI-360]
Lgr5+ Assay [3, 11]: 0.1 to 10 µM

CCC(CC)n1ccc2c(C(=O)NCc3c(C)cc(C)[nH]c3=O)cc(C#N)cc21 [Compound E11]
IC50 [2]: 13 nM
IC50 [6]: 0.243 µM
Lgr5+ Assay ([3]; Table 7, EZH2 inhibitors, concentration): 5 µM
Select vs EZH-1 ([5]; given as fold): 90x

Cc1cc(C)c(CN2CCc3c(Cl)cc(-c4c(C)noc4C)c(Cl)c3C2=O)c(=O)[nH]1 [PF-06726304]
IC50 [2]: 1.1 nM
Lit Cell Poten [7]: 10 to 25 nM

O=C(O)c1ccc(CN2CCC(CN[C@@H]3C[C@H]3c3ccccc3)CC2)cc1 [GSK-2879552]
IC50 [1]: 20 µM

Cc1c[nH]c(-c2cnc(NCCNc3ccc(C#N)cn3)nc2-c2ccc(Cl)cc2Cl)n1 [CHIR99021]
time until cleared from the systemic circulation [8]: ≤ 24 h
Lgr5+ Assay [3, 10]: 2 to 6 µM

CCCC(CCC)C(=O)[O-].[Na+] [Sodium Valproate]
Class selectivity [9]: Class I

Oc1ccc(C=Cc2cc(O)cc(O)c2)cc1 [Resveratrol]
IC50 [6]: 15 µM

Nc1nccc2c1ncn2[C@@H]1C=C(CO)[C@@H](O)[C@H]1O [DZNep]
Lgr5+ Assay ([3]; Table 7, EZH2 inhibitors, result in words): Activity
Lit Cell Poten [7]: 1000 nM

N[C@@H]1C[C@H]1c1ccccc1 [TCP]
Lgr5+ Assay ([3]; Table 6, concentration range): 0.1 to 20 µM
Human Plasma Conc, Cmax [4]: 30 to 200 ng/mL

C=CCNc1nc(N)c(C(=O)c2ccc(Cl)s2)s1 [IBS008738]
Lgr5+ Assay ([3]; Table 10, TAZ activators, concentration range): 1.1 to 30 µM

COc1cc(C)[nH]c(=O)c1CN1CCc2c(Cl)cc([C@H](OC)C3COC3)c(Cl)c2C1=O [PF-06821497]
IC50 [2]: < 1 nM
Select vs EZH-1 ([5]; given as a concentration): 70 nM

C#CCN(C)Cc1ccccc1 [Pargyline]
IC50 [6]: 1000 µM

Cc1ccc(C(=O)Nc2c[nH]nc2C(=O)NCCCOC(C)C)cn1 [GSK XXII]
Lgr5+ Assay [3, 10]: 0.2 to 1 µM

Cc1coc2c1C(=O)C(=O)c1c-2ccc2c1CC[C@@H](O)[C@]2(C)O [Tanshindiol C]
IC50 [2]: 550 nM

C#CCC(CCCCCC)C(=O)O (centres unmarked) [2-hexyl-4-pentynoic acid]
Class selectivity [9]: Class I

Thiourea
IC50 [1]: > 1250 µM

CCCc1cc(C)[nH]c(=O)c1CNC(=O)c1cc(-c2ccc(N3CCN(C(C)C)CC3)nc2)cc2c1cnn2C(C)C [UNC1999]
IC50 [2]: 10 nM
